Data reported in US7238786B2, “Monoclonal antibody cPAM4” (Immunomedics, Inc., priority 2002, dated 2007).
Where a SMILES comes first, the peptide text is derived from it. Side-chain parts run from the residue outwards. The star is where a group is joined. DTPA = O=C(O)CN(CCN(CC(=O)O)CC(=O)O)CCN(CC(=O)O)CC(=O)*; X1 = NC(=S)NN=CC(=O)*

System: CaPan1 tumor
Assay: Pre-targeting with bsMAb and radiolabeled peptide-haptens in CaPan1 tumor-bearing mice
Conditions: peptide pre-targeted with bsPAM4, 3-Hours
Method: Mice were sacrificed at 3 and 24 hours after the administration of peptides and the % ID/g determined for the tumor and various tissues.

SMILES	Tumor: Non-Tumor Tissue Ratio, Mean (Blood)	Tumor: Non-Tumor Tissue Ratio, Mean (Bone)	Tumor: Non-Tumor Tissue Ratio, Mean (Kidney)	Tumor: Non-Tumor Tissue Ratio, Mean (Liver)	Tumor: Non-Tumor Tissue Ratio, Mean (Lung)	Tumor: Non-Tumor Tissue Ratio, Mean (Pancreas)	Tumor: Non-Tumor Tissue Ratio, Mean (Spleen)	Tumor: Non-Tumor Tissue Ratio, Mean (Tumor)	Tumor: Non-Tumor Tissue Ratio, Mean (W. Bone)
CC(=O)N[C@@H](Cc1ccccc1)C(=O)N[C@@H](CCCCNC(=O)CN(CCN(CCN(CC(=O)O)CC(=O)O)CC(=O)O)CC(=O)O)C(=O)N[C@@H](Cc1ccc(O)cc1)C(=O)N[C@@H](CCCCNC(=O)CN(CCN(CCN(CC(=O)O)CC(=O)O)CC(=O)O)CC(=O)O)C(N)=O [^111In-IMP156, metal not drawn] (Ac-FK(DTPA)YK(DTPA)-NH2; N-terminus and C-terminus assumed)	36.47	123.24	7.79	36.07	44.55	155.55	33.40	1.00	378.00
CC(=O)N[C@@H](CCCCNC(=O)CN(CCN(CCN(CC(=O)O)CC(=O)O)CC(=O)O)CC(=O)O)C(=O)N[C@@H](Cc1ccc(O)cc1)C(=O)N[C@@H](CCCCNC(=O)CN(CCN(CCN(CC(=O)O)CC(=O)O)CC(=O)O)CC(=O)O)C(=O)N[C@@H](CCCCNC(=O)[C@H](CS)NC(=O)C=NNC(N)=S)C(N)=O [^99mTc-IMP192, metal not drawn] (Ac-K(DTPA)YK(DTPA)K([Cys-X1])-NH2; N-terminus and C-terminus assumed)	9.93	–	8.13	16.66	15.75	73.29	14.62	1.00	–
